{"source": "patent US7517644B1", "about": "“Method and compositions for cellular reprogramming” (priority 1991, dated 2009)", "key": {"[1]": {"tested_on": "AML blast cells freshly obtained from patients", "test": "junD ODN on fresh AML blasts: suspension culture viable counts and blast colony assay", "format": "cell-based, human", "conditions": "7 days incubation, suspension culture viable cell counts", "experimental": "In the initial tests, the H(1)junD oligo or a control ODN were incubated with AML blast cells for seven days. The blast cells were freshly obtained from patients with AML and were cultured and evaluated for ODN effects as described by Bayever et al.(Leukemia and Lymphoma 12: 223-231, 1994). In brief, after the incubation with ODNs, the blast cells were then washed, and adjusted to 10^5 cells per ml and continued in culture for several more days. Viable cell counts were performed every 2-3 days on suspension cultures and oligo-treated blast cells were plated in the “blast colony assay” to determine the effects of the ODNs on the leukemic stem cells."}, "[2]": {"tested_on": "DU-145 prostate cancer cells", "test": "sensitization of MRP-expressing prostate cancer cells to drug (Table XVII)", "format": "cell-based, human"}, "[3]": {"tested_on": "malignant cell lines"}, "[4]": {"tested_on": "ovarian carcinoma", "test": "anticancer effect of junD ODN on solid tumors", "format": "cell-based"}, "[5]": {"tested_on": "8226/Dox cells", "test": "sensitization of P-glycoprotein-expressing drug-resistant cells to vincristine (Table XVII)", "format": "cell-based, human", "conditions": "for Fold increase in Drug Sensitivity: 8226/Dox6 cells, versus media control; for sensitization to vincristine: P-glycoprotein-expressing drug-resistant 8226/Dox", "experimental": "To determine relative activity among the various MDR1 antisense ODNs, they were incubated at several different ODN concentrations in cell culture medium with the human multiple myeloma cell lines 8226/Dox4 or 8226/Dox6 (gifts of Dr. William Dalton, University of Arizona Cancer Center, Tucson) (Dalton et al., Cancer Res. 46: 5125, 1986). Specifically, the human myeloma cells were incubated with the antisense ODNs for four (4) days, in a humidified, 5% CO2 atmosphere containing a reduced oxygen level of 5%, maintained by purging the culture incubator with nitrogen gas in place of ambient room air. Addition of an antioxidant to the cultures during exposure of the cells to the ODN further reduces the effects of the free radicals induced by the ODNs on cells (this effect can include increased expression of MDR1). The cell cultures were then incubated with a chemotherapeutic anti-cancer agent overnight (15-18 hrs), after which the cell cultures were washed repeatedly and then seeded into 96-well microtest plates to permit quantitative analysis of their growth. Tritiated-thymidine was added to these cultures for 18-hrs prior to termination of the assays on day 4 following exposure to the anticancer agents. Each test combination of cells, antisense ODN and anti-cancer agent was run in quadruplicate replicates."}, "[6]": {"tested_on": "drug-sensitive (parent) cancer cell lines", "test": "drug sensitization of drug-sensitive (parent) cancer cell lines (Table XVII)", "format": "cell-based, human", "description": "The enhanced reduction in P-glycoprotein expression due to the combined antisense and aptameric-like effects likely causes the associated reduction in cell proliferation. It has been previously shown that treating P-glycoprotein-expressing cells with monoclonal antibodies capable of binding to and blocking P-glycoprotein function leads to a substantial reduction in the proliferation of the treated cells. […] The term “aptameric-like” is used because the effect seen is seen with some sequences but not others (aptameric); aptameric-like effects are substantially more common among ODN sequences than are the usual aptameric effects. […] In general, this situation in which the antisense and an aptameric-like effect of an ODN both act to reduce expression of the same gene (e.g., MDR1) can be expected to be a very uncommon finding among antisense ODN therapeutics directed to other gene targets. […]"}}}
{"substance": "H(1)junD: junD antisense ODN, GTCGGCGTGG TGGTGA (antisense GTCGGCGTGGTGGTGA; DNA, backbone and methylation of C not given here; listed as Homo sapiens)", "values": [{"measurement": "antileukemic effect", "setting": "[1]", "value": "as great or a greater antileukemic effect than OL(1)p53"}, {"measurement": "sensitization to chemotherapeutic agent", "setting": "[2]; DU-145, express MRP and not P-glycoprotein", "value": "sensitize"}, {"measurement": "Fold increase in Drug Sensitivity", "setting": "[2]; DU-145 cells, versus media control", "value": 19}, {"measurement": "cytotoxic or anticancer growth-inhibitory effect on malignant cell lines", "setting": "[3]", "value": "less of a cytotoxic or anticancer growth-inhibitory effect"}, {"measurement": "anticancer effects on solid tumors", "setting": "[4]", "value": "anticancer effects"}, {"measurement": "Fold increase in Drug Sensitivity", "setting": "[5]", "value": 500}, {"measurement": "sensitization to vincristine", "setting": "[5]", "value": "sensitize"}, {"measurement": "drug sensitization of drug-sensitive lines", "setting": "[6]", "value": "minimal sensitizing potential"}, {"measurement": "Fold increase in Drug Sensitivity", "setting": "[6]; 8226/sensitive parent cells, versus media control", "value": 3}]}
{"substance": "H(2)junD: junD antisense ODN, GCTCGTCGGC GTGGTGGTGA (antisense GCTCGTCGGCGTGGTGGTGA; DNA, backbone and methylation of C not given here; listed as Homo sapiens)", "values": [{"measurement": "cytotoxic or anticancer growth-inhibitory effect on malignant cell lines", "setting": "[3]", "value": "less of a cytotoxic or anticancer growth-inhibitory effect"}, {"measurement": "Fold increase in Drug Sensitivity", "setting": "[5]", "value": 1091}, {"measurement": "sensitization to vincristine", "setting": "[5]", "value": "sensitize"}]}
